Test results published in patent US7247617B2, “Sixteen-member macrolide antiinfective agents” (Kosan Biosciences Incorporated, priority 2004, dated 2007).

What was measured:
E. faecalis = assay: Biological activity against bacterial strains: E. faecalis; assay type: cell-based, Enterococcus faecalis; settings: strain ATCC51575
S. epidermidis = assay: Biological activity against bacterial strains: S. epidermidis; assay type: cell-based, Staphylococcus epidermidis; settings: strain ATCC12228
S. aureus = assay: Biological activity against bacterial strains: S. aureus; assay type: cell-based, Staphylococcus aureus; set-up: unit not given here; settings: for Biological Activity, S. aureus ATCC6538p: strain ATCC6538p; for Biological Activity, S. aureus ATCC14154*: strain ATCC14154, macrolide resistant strain; for Biological Activity, S. aureus ATCC29213: strain ATCC29213; for Biological Activity, S. aureus ATCC33591*: strain ATCC33591, macrolide resistant strain; for Biological Activity, S. aureus ATCCBAA-39*: strain ATCCBAA-39, macrolide resistant strain; for Biological Activity, S. aureus ATCCBAA-44*: strain ATCCBAA-44, macrolide resistant strain
S. pneumoniae = assay: Biological activity against bacterial strains: S. pneumoniae; assay type: cell-based, Streptococcus pneumoniae; set-up: Biological Activity, S. pneumoniae ATCC6301 / Biological Activity, S. pneumoniae ATCC700671 / Biological Activity, S. pneumoniae ATCC700676* / Biological Activity, S. pneumoniae ATCC700677* / Biological Activity, S. pneumoniae ATCC700905* / Biological Activity, S. pneumoniae ATCC700906* / Biological Activity, S. pneumoniae ATCC49619: unit not given here; settings: for Biological Activity, S. pneumoniae ATCC6301: strain ATCC6301; for Biological Activity, S. pneumoniae ATCC49619: strain ATCC49619; for Biological Activity, S. pneumoniae ATCC700671: strain ATCC700671; for Biological Activity, S. pneumoniae ATCC700676*: strain ATCC700676, macrolide resistant strain; for Biological Activity, S. pneumoniae ATCC700677*: strain ATCC700677, macrolide resistant strain; for Biological Activity, S. pneumoniae ATCC700905*: strain ATCC700905, macrolide resistant strain; for Biological Activity, S. pneumoniae ATCC700906*: strain ATCC700906, macrolide resistant strain

## CCC1OC(=O)CC(O)C(C)C(OC2OC(C)C(O)C(N(C)C)C2O)C(CC=O)CC(C)C(=NOCC=Cc2cnc3ccccc3c2)C=CC(C)=CC1CO (single isomer, unassigned) [Compound G]
E. faecalis
  Biological Activity, E. faecalis ATCC51575: >12.5
S. epidermidis
  Biological Activity, S. epidermidis ATCC12228: 0.39
S. aureus
  Biological Activity, S. aureus ATCC6538p: 0.20
  Biological Activity, S. aureus ATCC14154*: 0.78
  Biological Activity, S. aureus ATCC29213: 0.78
  Biological Activity, S. aureus ATCC33591*: >12.5
  Biological Activity, S. aureus ATCCBAA-39*: >12.5
  Biological Activity, S. aureus ATCCBAA-44*: >12.5
S. pneumoniae
  Biological Activity, S. pneumoniae ATCC6301: 0.025
  Biological Activity, S. pneumoniae ATCC49619: 0.025
  Biological Activity, S. pneumoniae ATCC700671: 0.025
  Biological Activity, S. pneumoniae ATCC700676*: 0.049
  Biological Activity, S. pneumoniae ATCC700677*: >12.5
  Biological Activity, S. pneumoniae ATCC700905*: 0.049
  Biological Activity, S. pneumoniae ATCC700906*: >12.5

## CCC1OC(=O)CC(O)C(C)C(OC2OC(C)C(O)C(N(C)C)C2O)C(CCN2CC(C)CC(C)C2)CC(C)C(=NOCCCOc2ccc3ncccc3c2)C=CC(C)=CC1COC1OC(C)C(O)C(OC)C1OC (single isomer, unassigned) [Compound L]
E. faecalis
  Biological Activity, E. faecalis ATCC51575: >12.5
S. epidermidis
  Biological Activity, S. epidermidis ATCC12228: 0.20
S. aureus
  Biological Activity, S. aureus ATCC6538p: 0.20
  Biological Activity, S. aureus ATCC14154*: 0.20
  Biological Activity, S. aureus ATCC29213: 0.20
  Biological Activity, S. aureus ATCC33591*: >12.5
  Biological Activity, S. aureus ATCCBAA-39*: >12.5
  Biological Activity, S. aureus ATCCBAA-44*: >12.5
S. pneumoniae
  Biological Activity, S. pneumoniae ATCC6301: 0.01
  Biological Activity, S. pneumoniae ATCC49619: 0.025
  Biological Activity, S. pneumoniae ATCC700671: 0.01
  Biological Activity, S. pneumoniae ATCC700676*: 0.049
  Biological Activity, S. pneumoniae ATCC700677*: 0.025
  Biological Activity, S. pneumoniae ATCC700905*: 0.098
  Biological Activity, S. pneumoniae ATCC700906*: >12.5

## CCC1OC(=O)CC(O)C(C)C(OC2OC(C)C(O)C(N(C)C)C2O)C(CC=O)CC(C)C(=NOCCCCOc2ccc3ncccc3c2)C=CC(C)=CC1CO (stereo not drawn) [Compound B]
E. faecalis
  Biological Activity, E. faecalis ATCC51575: >12.5
S. epidermidis
  Biological Activity, S. epidermidis ATCC12228: 0.20
S. aureus
  Biological Activity, S. aureus ATCC6538p: 0.20
  Biological Activity, S. aureus ATCC14154*: 0.78
  Biological Activity, S. aureus ATCC29213: 0.78
  Biological Activity, S. aureus ATCC33591*: >12.5
  Biological Activity, S. aureus ATCCBAA-39*: >12.5
  Biological Activity, S. aureus ATCCBAA-44*: >12.5
S. pneumoniae
  Biological Activity, S. pneumoniae ATCC6301: 0.025
  Biological Activity, S. pneumoniae ATCC49619: 0.01
  Biological Activity, S. pneumoniae ATCC700671: 0.025
  Biological Activity, S. pneumoniae ATCC700676*: 0.025
  Biological Activity, S. pneumoniae ATCC700677*: 0.39
  Biological Activity, S. pneumoniae ATCC700905*: 0.025
  Biological Activity, S. pneumoniae ATCC700906*: >12.5

## CCC1OC(=O)CC(O)C(C)C(OC2OC(C)C(O)C(N(C)C)C2O)C(CCN2CC(C)CC(C)C2)CC(C)C(=NOCCCCOc2ccc3ncccc3c2)C=CC(C)=CC1COC1OC(C)C(O)C(OC)C1OC (single isomer, unassigned) [Compound M]
E. faecalis
  Biological Activity, E. faecalis ATCC51575: >12.5
S. epidermidis
  Biological Activity, S. epidermidis ATCC12228: 1.56
S. aureus
  Biological Activity, S. aureus ATCC6538p: 0.78
  Biological Activity, S. aureus ATCC14154*: 1.56
  Biological Activity, S. aureus ATCC29213: 1.56
  Biological Activity, S. aureus ATCC33591*: >12.5
  Biological Activity, S. aureus ATCCBAA-39*: >12.5
  Biological Activity, S. aureus ATCCBAA-44*: >12.5
S. pneumoniae
  Biological Activity, S. pneumoniae ATCC6301: 0.01
  Biological Activity, S. pneumoniae ATCC49619: 0.01
  Biological Activity, S. pneumoniae ATCC700671: 0.01
  Biological Activity, S. pneumoniae ATCC700676*: 1.56
  Biological Activity, S. pneumoniae ATCC700677*: 6.25
  Biological Activity, S. pneumoniae ATCC700905*: 1.56
  Biological Activity, S. pneumoniae ATCC700906*: >12.5

## CCC1OC(=O)CC(O)C(C)C(OC2OC(C)C(O)C(N(C)C)C2O)C(CCN2CC(C)CC(C)C2)CC(C)C(=NOCc2ccc(F)cc2)C=CC(C)=CC1CO (stereo not drawn) [Compound W]
E. faecalis
  Biological Activity, E. faecalis ATCC51575: >12.5
S. epidermidis
  Biological Activity, S. epidermidis ATCC12228: 3.12
S. aureus
  Biological Activity, S. aureus ATCC6538p: 0.78
  Biological Activity, S. aureus ATCC14154*: 3.12
  Biological Activity, S. aureus ATCC29213: 3.12
  Biological Activity, S. aureus ATCC33591*: >12.5
  Biological Activity, S. aureus ATCCBAA-39*: >12.5
  Biological Activity, S. aureus ATCCBAA-44*: >12.5
S. pneumoniae
  Biological Activity, S. pneumoniae ATCC6301: 0.39
  Biological Activity, S. pneumoniae ATCC49619: 0.39
  Biological Activity, S. pneumoniae ATCC700671: 0.39
  Biological Activity, S. pneumoniae ATCC700676*: 0.39
  Biological Activity, S. pneumoniae ATCC700677*: >12.5
  Biological Activity, S. pneumoniae ATCC700905*: 0.39
  Biological Activity, S. pneumoniae ATCC700906*: >12.5

## CCC1OC(=O)CC(O)C(C)C(OC2OC(C)C(O)C(N(C)C)C2O)C(CC=O)CC(C)C(=NOCC=Cc2ccc3nccnc3c2)C=CC(C)=CC1CO (stereo not drawn) [Compound H]
E. faecalis
  Biological Activity, E. faecalis ATCC51575: >12.5
S. epidermidis
  Biological Activity, S. epidermidis ATCC12228: 0.20
S. aureus
  Biological Activity, S. aureus ATCC6538p: 0.20
  Biological Activity, S. aureus ATCC14154*: 0.39
  Biological Activity, S. aureus ATCC29213: 0.39
  Biological Activity, S. aureus ATCC33591*: >12.5
  Biological Activity, S. aureus ATCCBAA-39*: >12.5
  Biological Activity, S. aureus ATCCBAA-44*: >12.5
S. pneumoniae
  Biological Activity, S. pneumoniae ATCC6301: 0.025
  Biological Activity, S. pneumoniae ATCC49619: 0.025
  Biological Activity, S. pneumoniae ATCC700671: 0.049
  Biological Activity, S. pneumoniae ATCC700676*: 0.049
  Biological Activity, S. pneumoniae ATCC700677*: >12.5
  Biological Activity, S. pneumoniae ATCC700905*: 0.049
  Biological Activity, S. pneumoniae ATCC700906*: >12.5

## CCC1OC(=O)CC(O)C(C)C(OC2OC(C)C(O)C(N(C)C)C2O)C(CCN2CC(C)CC(C)C2)CC(C)C(=NOCCCOc2ccc3ncccc3c2)C=CC(C)=CC1COC1OC(C)C(O)C(OC)C1OC (single isomer, unassigned) [Compound K]
E. faecalis
  Biological Activity, E. faecalis ATCC51575: >12.5
S. epidermidis
  Biological Activity, S. epidermidis ATCC12228: 0.39
S. aureus
  Biological Activity, S. aureus ATCC6538p: 0.20
  Biological Activity, S. aureus ATCC14154*: 0.39
  Biological Activity, S. aureus ATCC29213: 0.39
  Biological Activity, S. aureus ATCC33591*: >12.5
  Biological Activity, S. aureus ATCCBAA-39*: >12.5
  Biological Activity, S. aureus ATCCBAA-44*: >12.5
S. pneumoniae
  Biological Activity, S. pneumoniae ATCC6301: 0.01
  Biological Activity, S. pneumoniae ATCC49619: 0.098
  Biological Activity, S. pneumoniae ATCC700671: 0.025
  Biological Activity, S. pneumoniae ATCC700676*: 0.049
  Biological Activity, S. pneumoniae ATCC700677*: 0.049
  Biological Activity, S. pneumoniae ATCC700905*: 0.20
  Biological Activity, S. pneumoniae ATCC700906*: >12.5

## CCC1OC(=O)CC(O)C(C)C(OC2OC(C)C(O)C(N(C)C)C2O)C(CCN2CC(C)CC(C)C2)CC(C)C(=NOCCCCOc2ccc3ncccc3c2)C=CC(C)=CC1COC1OC(C)C(O)C(OC)C1OC (single isomer, unassigned) [Compound N]
E. faecalis
  Biological Activity, E. faecalis ATCC51575: >12.5
S. epidermidis
  Biological Activity, S. epidermidis ATCC12228: 3.12
S. aureus
  Biological Activity, S. aureus ATCC6538p: 0.78
  Biological Activity, S. aureus ATCC14154*: 1.56
  Biological Activity, S. aureus ATCC29213: 3.12
  Biological Activity, S. aureus ATCC33591*: >12.5
  Biological Activity, S. aureus ATCCBAA-39*: >12.5
  Biological Activity, S. aureus ATCCBAA-44*: >12.5
S. pneumoniae
  Biological Activity, S. pneumoniae ATCC6301: 0.025
  Biological Activity, S. pneumoniae ATCC49619: 0.098
  Biological Activity, S. pneumoniae ATCC700671: 0.049
  Biological Activity, S. pneumoniae ATCC700676*: 1.56
  Biological Activity, S. pneumoniae ATCC700677*: 6.25
  Biological Activity, S. pneumoniae ATCC700905*: 0.78
  Biological Activity, S. pneumoniae ATCC700906*: >12.5
